Laboratory results: US10202413B2, “Neuroactive enantiomeric 15-, 16- and 17-substituted steroids as modulators for GABA type-A receptors” (priority 2013, dated 2019)
Read-outs that look alike come from different tables or passages of the source. Marks after values point to notes of the source that are not given here.

Tests used:
mice = test: Mouse duration of anesthesia (LRR) after tail vein injection; assay type: in vivo
Procedure: The compounds were dissolved in 22.5% aqueous 2-(hydroxypropyl)-β-cyclodextrin. For compound 28, serial dilutions of a 8 mg/kg stock solution with 0.9% saline were made to obtain the lower doses tested.
At a dose of 8 mg/kg, compound MQ-35 caused LRR of about 3 minutes and at a dose of 16 mg/kg duration of LRR was increased to about 7 minutes.
At 4 mg/kg, LRR induced by KK-122 lasted about 5 minutes and at a dose of 8 mg/kg LRR lasted for about 9 minutes. For all three compounds, the onset of anesthesia was immediate (i.e., less than 30 seconds) and recovery was characterized by a rapid progression over 1-2 minutes from an initial return of leg movement followed by righting and subsequent walking around the cage.

[1] = molecular target: T1, rat α1β2γ2L type GABAA receptors expressed in Xenopus laevis oocytes (Rattus norvegicus, UniProt P18508+P62813+P63138, INS375LLRMFSFK); test: Oocyte electrophysiology: potentiation of chloride currents mediated by 2 μM GABA, and direct gating; assay type: cell-based; conditions: ± SEM (N≥4); for ratio of currents measured in the presence/absence of added compound, 0.1 μM: 0.1 μM compound; for ratio of currents measured in the presence/absence of added compound, 0.1 μM / ratio of currents measured in the presence/absence of added compound, 1.0 μM / ratio of currents measured in the presence/absence of added compound, 10 μM: 2 μM GABA; for ratio of currents measured in the presence/absence of added compound, 1.0 μM: 1.0 μM compound; for ratio of currents measured in the presence/absence of added compound, 10 μM: 10 μM compound; for (gating) 10 μM: ratio of compound only current/GABA current: direct current gated by 10 μM compound in the absence of GABA
T1 construct: expressed in transfected cells; host or cells: Xenopus laevis oocytes
T1 sequence (P62813 28-455, stated change not applied): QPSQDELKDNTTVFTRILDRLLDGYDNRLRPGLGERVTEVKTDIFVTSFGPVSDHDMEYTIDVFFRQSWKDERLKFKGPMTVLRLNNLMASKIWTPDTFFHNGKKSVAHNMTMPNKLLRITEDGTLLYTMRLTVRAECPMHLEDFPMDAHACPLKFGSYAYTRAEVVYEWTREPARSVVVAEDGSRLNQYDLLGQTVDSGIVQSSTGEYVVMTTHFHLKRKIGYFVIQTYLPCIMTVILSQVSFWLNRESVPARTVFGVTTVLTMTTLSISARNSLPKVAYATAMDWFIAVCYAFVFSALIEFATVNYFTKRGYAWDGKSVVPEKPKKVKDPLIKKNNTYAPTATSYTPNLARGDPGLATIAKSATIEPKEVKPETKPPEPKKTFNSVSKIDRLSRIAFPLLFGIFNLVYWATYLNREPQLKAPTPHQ
T1 sequence (P63138 26-474, stated change not applied): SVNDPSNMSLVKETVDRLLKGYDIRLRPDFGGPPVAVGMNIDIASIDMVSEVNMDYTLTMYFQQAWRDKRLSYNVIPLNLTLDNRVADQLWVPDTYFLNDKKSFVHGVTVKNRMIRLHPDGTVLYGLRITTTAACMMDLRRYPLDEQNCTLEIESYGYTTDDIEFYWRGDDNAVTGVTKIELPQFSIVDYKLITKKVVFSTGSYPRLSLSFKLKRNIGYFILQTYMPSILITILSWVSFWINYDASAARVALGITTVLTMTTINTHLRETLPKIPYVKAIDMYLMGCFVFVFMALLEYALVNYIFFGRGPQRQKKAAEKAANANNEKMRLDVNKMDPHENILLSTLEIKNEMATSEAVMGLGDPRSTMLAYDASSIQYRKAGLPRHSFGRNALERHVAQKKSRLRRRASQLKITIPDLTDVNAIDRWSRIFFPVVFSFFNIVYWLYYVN
T1 sequence (P18508 with tags, fused parts or gaps INS375LLRMFSFK): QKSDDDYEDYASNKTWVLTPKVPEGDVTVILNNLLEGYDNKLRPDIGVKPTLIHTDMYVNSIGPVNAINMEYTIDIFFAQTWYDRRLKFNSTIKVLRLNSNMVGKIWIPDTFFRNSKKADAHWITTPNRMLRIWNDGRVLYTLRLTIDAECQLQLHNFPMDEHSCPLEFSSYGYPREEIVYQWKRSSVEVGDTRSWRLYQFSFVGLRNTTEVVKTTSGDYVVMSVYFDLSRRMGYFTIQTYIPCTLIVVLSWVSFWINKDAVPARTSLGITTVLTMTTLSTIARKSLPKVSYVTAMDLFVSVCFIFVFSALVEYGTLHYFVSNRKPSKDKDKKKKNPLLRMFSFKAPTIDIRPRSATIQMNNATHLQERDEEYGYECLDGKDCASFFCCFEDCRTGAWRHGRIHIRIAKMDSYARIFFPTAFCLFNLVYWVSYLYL
Procedure: The compounds of the present disclosure were evaluated for the ability to potentiate chloride currents mediated by 2 μM GABA at rat α1β2γ2L type GABAA receptors expressed in Xenopus laevis oocytes and the results are shown in Table 2.
The GABA concentration used for the control response was 2 μM. Each compound was evaluated on at least four different oocytes at the concentrations indicated, and the results reported are the ratio of currents measured in the presence/absence of added compound. Gating represents direct current gated by 10 μM compound in the absence of GABA, and this current is reported as the ratio of compound only current/[…] current. Error limits are calculated as standard error of the mean (N≥4). Receptor expression and whole-cell and single-channel recordings were carried out as described previously (see Jiang, et al., Neurosteroid analogues. 9. Conformationally constrained pregnanes: structure-activity studies of 13,24-cyclo-18,21-dinorcholane analogues of the GABA modulatory and anesthetic steroids (3α,5α)- and (3α,5β)-3-hydroxypregnan-20-one. J. Med. Chem. 2003, 46, 5334-5348).

Tadpole = Tadpole loss of righting (LRR) and loss of swimming (LSR) reflexes; assay type: in vivo; conditions: for EC50: ± SEM; for tadpoles that lost LRR / tadpoles that lost LSR: concentration of 3 μM, number of 10 tadpoles
From the text: Table 3 discloses the anesthetic effects of the compounds of the present disclosure. In particular, the anesthetic effect of the compounds of the present disclosure on Loss of Righting Reflex (LRR) and Loss of Swimming Reflex (LSR).
Methods used are known in the art (see, e.g., Jiang, et al., Neurosteroid analogues. 9. Conformationally constrained pregnanes: structure-activity studies of 13,24-cyclo-18,21-dinorcholane analogues of the GABA modulatory and anesthetic steroids (3α,5α)- and (3α,5β)-3-hydroxypregnan-20-one. J. Med. Chem. 2003, 46, 5334-5348). Error limits are calculated as standard error of the mean (N=10 or more animals at each of five or more different concentrations).

[2] = molecular target: picrotoxin binding site on GABAA receptors; test: [35S]-TBPS displacement (inhibition of [35S]-TBPS binding); conditions: non-competitive displacement of [35S]-TBPS; ± standard error of the mean
Procedure: The IC50 values for the compounds of the examples as non-competitive displacers of [^35S]-TBPS from the picrotoxin binding site on GABAA receptors are reported in Table 1.
Results presented are from duplicate experiments performed in triplicate. Error limits are calculated as standard error of the mean. Methods used are known in the art (see, e.g., Jiang, et al., Neurosteroid analogues. 9. Conformationally constrained pregnanes: structure-activity studies of 13,24-cyclo-18,21-dinorcholane analogues of the GABA modulatory and anesthetic steroids (3α,5α)- and (3α,5β)-3-hydroxypregnan-20-one. J. Med. Chem. 2003, 46, 5334-5348).

[3] = loss of righting reflex, read-out: Tadpole LRR EC50
[4] = loss of swimming reflex, read-out: Tadpole LSR EC50

SMILES	duration of anesthesia (LRR) (mice; 16 mg/kg)	ratio of currents measured in the presence/absence of added compound, 0.1 μM [1]	ratio of currents measured in the presence/absence of added compound, 1.0 μM [1]	ratio of currents measured in the presence/absence of added compound, 10 μM [1]	(gating) 10 μM: ratio of compound only current/GABA current [1]	EC50 (Tadpole; [3]) [nM]	EC50 (Tadpole; [4]) [nM]	IC50 [2] [nM]	duration of anesthesia (LRR) (mice; 8 mg/kg)	melting point [°C]	duration of anesthesia (LRR) (mice; 1 mg/kg)	duration of anesthesia (LRR) (mice; 4 mg/kg)	duration of anesthesia (LRR) (mice; threshold dose of 2 mg/kg)	tadpoles that lost LRR (Tadpole)	tadpoles that lost LSR (Tadpole)
CC(=O)[C@H]1CC[C@H]2[C@@H]3CC[C@H]4C[C@H](O)CC[C@]4(C)[C@H]3C(=O)C[C@]12C [alphaxalone, reference compound]	about 4 minutes	–	–	–	–	–	–	–	–	–	–	–	–	–	–
C[C@@]12CC[C@@H]3[C@H](CC[C@@H]4C[C@@H](O)CC[C@]43C)[C@H]1CC(=O)C2 [MQ-35, (3β,5β,8α,9β,10α,13α,14β)-3-Hydroxyandrostan-16-one]	about 7 minutes	1.42 ± 0.02	7.72 ± 0.39	34.70 ± 1.69	0.15 ± 0.04	550 ± 90	1730 ± 40	81 ± 8	about 3 minutes	152 to 153	–	–	–	–	–
C[C@@]12CC[C@@H]3[C@H](CC[C@H]4C[C@@H](O)CC[C@]43C)[C@H]1C[C@@H](C#N)C2 [KK-137, (3β,5α,8α,9β,10α,13α,14β,16α)-3-Hydroxyandrost-16-carbonitrile]	–	2.32 ± 0.17	7.08 ± 0.54	10.17 ± 0.68	−0.04 ± 0.08	130	550 ± 10	22 ± 4	–	155 to 157	–	–	–	–	–
CO[C@H]1[C@H]2CC[C@@H]3[C@H]4CC(=O)C[C@]4(C)CC[C@H]3[C@]2(C)CC[C@@H]1O [KK-122, (3β,4α,5β,8α,9β,10α,3α,14β)-3-Hydroxy-4-methoxyandrostan-16-one]	–	1.41 ± 0.07	6.48 ± 0.40	16.00 ± 2.21	0.08 ± 0.03	340 ± 400	1730 ± 30	83 ± 11	about 9 minutes	198 to 200	no LRR was observed	about 5 minutes	about 1 minute	–	–
C[C@@]12CC[C@H]3[C@@H]4CC[C@H](O)C[C@H]4CC[C@@H]3[C@H]1CC(=O)C2 [KK-103]	–	0.97 ± 0.02	2.43 ± 0.02	10.52 ± 0.61	0.02 ± 0.01	1160 ± 210	5480 ± 120	238 ± 21	–	160 to 162	–	–	–	–	–
C[C@@]12CC[C@@H]3[C@H](CC[C@@H]4C[C@@H](O)CC[C@]43C)[C@H]1CC(=CC#N)C2 [KK-138, 2-[(3β,5β,8α,9β,10α,13α,14β)-3-Hydroxyandrostan-16-ylidene]-acetonitrile]	–	1.63 ± 0.23	5.87 ± 1.65	10.16 ± 3.18	0.14 ± 0.06	140	870	32 ± 3	–	162 to 172	–	–	–	–	–
CO[C@@H]1C[C@@H]2[C@H]3C[C@H](OC)[C@@H]4C[C@@H](O)CC[C@@]4(C)[C@@H]3CC[C@@]2(C)C1 [MQ-125, (3β,5β,6α,8α,9β,10α,13α,14β,16α)-6,16-Dimethoxyandrostan3-ol]	–	1.19 ± 0.18	5.02 ± 0.40	14.08 ± 2.23	0.43 ± 0.41	–	–	121 ± 10	–	127 to 129	–	–	–	10/10^a	10/10^a
CO[C@@H]1C[C@@H]2[C@H]3CC[C@@H]4C[C@@H](O)CC[C@@]4(C)[C@@H]3CC[C@@]2(C)C1 [KK-134, (3β,5β,8α,9β,10α,13α,14β,16α)-16-Methoxyandrostan-3-ol]	–	1.16 ± 0.07	5.22 ± 1.09	8.27 ± 1.27	0.04 ± 0.05	–	–	92 ± 9	–	169 to 171	–	–	–	10/10^a	10/10^a
C[C@@]12CC[C@H]3[C@@H]4CC[C@H](O)C[C@@H]4CC[C@@H]3[C@H]1CC(=O)C2 [KK-102]	–	1.20 ± 0.02	4.23 ± 0.24	13.91 ± 1.38	0.04 ± 0.0	1210 ± 420	5480 ± 120	146 ± 18	–	139 to 142	–	–	–	–	–
CO[C@H]1CC[C@]2(C)CC[C@@H]3[C@H](CC[C@@H]4C[C@@H](O)CC[C@]43C)[C@@H]12 [MQ-117, (3β,5β,8α,9β,10α,13α,14β,15α)-15-Methxoyandrostan-3-ol]	–	3.43 ± 0.29	11.10 ± 1.16	26.20 ± 2.91	0.06 ± 0.02	79 ± 3	330	19 ± 8	–	137 to 139	–	–	–	–	–
